From US7868005B2, “Pyrazinyl substituted piperazine-piperidines with CXCR3 antagonist activity” (Schering Corporation, priority 2005, dated 2011)

Target: T1, human CXCR3 (N-delta 4) (Homo sapiens, UniProt P49682)
T1 construct: CD8 leader (N); Flag; expressed in transfected cells; membranes prepared
T1 sequence (P49682 5-368 limits assumed): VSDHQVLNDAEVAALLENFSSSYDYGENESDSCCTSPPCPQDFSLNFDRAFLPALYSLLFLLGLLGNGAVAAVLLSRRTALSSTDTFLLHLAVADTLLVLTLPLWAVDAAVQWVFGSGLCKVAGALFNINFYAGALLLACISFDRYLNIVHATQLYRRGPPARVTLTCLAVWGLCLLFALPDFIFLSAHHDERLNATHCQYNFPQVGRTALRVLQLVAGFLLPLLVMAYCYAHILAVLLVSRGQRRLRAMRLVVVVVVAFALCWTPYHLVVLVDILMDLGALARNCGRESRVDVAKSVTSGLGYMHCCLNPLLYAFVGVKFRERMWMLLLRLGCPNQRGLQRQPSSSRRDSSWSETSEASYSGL
Assay: Human CXCR3 (N-delta 4) Scintillation Proximity Assay (SPA), [125I] IP-10 binding to Ba/F3-hCXCR3 membranes
Details: IC50 rating, Table 1; read-out: IC50

Row | Compound | IC50
1 | CC[C@H]1CN(c2nc(N)c(C(=O)NNC(=S)NC)nc2Cl)CCN1C1CCN(Cc2ccc(Cl)cc2)CC1 [compound 270] | < 25 nM
2 | CC[C@H]1CN(c2nc(N)c(C(=O)N[C@@H]3CCN(C(=O)OC(C)(C)C)C3)nc2Cl)CCN1C1CCN(Cc2ccc(Cl)cc2)CC1 [compound 274] | > 100 nM
3 | CC[C@H]1CN(c2nc(N)c(C(=O)NCCCN3CCCS3(=O)=O)nc2Cl)CCN1C1CCN(Cc2ccc(C#N)cc2)CC1 [compound 275] | > 100 nM
4 | CC[C@H]1CN(c2nc(N)c(C(=O)NCCCN3CCCC3=O)nc2Cl)CCN1C1CCN(Cc2ccc(C#N)cc2)CC1 [compound 276] | > 100 nM
5 | CC[C@H]1CN(c2nc(N)c(C(=O)NC3CCOC3=O)nc2Cl)CCN1C1CCN(Cc2ccc(Cl)cc2)CC1 (stereo partly drawn) [compound 277] | < 25 nM
6 | CC[C@H]1CN(c2nc(N)c(C(=O)NC3CCOC3=O)nc2Cl)CCN1C1CCN(Cc2ccc(Cl)cc2)CC1 (stereo partly drawn) [compound 278] | < 25 nM
7 | CC[C@H]1CN(c2nc(N)c(C(=O)N[C@H]3CCOC3=O)nc2Cl)CCN1C1CCN(Cc2ccc(Cl)cc2)CC1 [compound 279] | < 25 nM
8 | CC[C@H]1CN(c2nc(N)c(C(=O)N[C@@H]3CCNC3=O)nc2Cl)CCN1C1CCN(Cc2ccc(C#N)cc2)CC1 [compound 280] | > 100 nM
9 | CC[C@H]1CN(c2nc(N)c(C(N)=O)nc2Cl)CCN1C1(C)CCN(Cc2ccc(Cl)cc2C(N)=O)CC1 [compound 281] | > 100 nM
10 | CC[C@H]1CN(c2nc(N)c(C(N)=O)nc2Cl)CCN1C1CCN(Cc2ccc(Cl)cc2)[C@H](C(N)=O)C1 (stereo partly drawn) [compound 282] | 25 to 100 nM
11 | CC[C@H]1CN(c2nc(N)c(C(N)=O)nc2Cl)CCN1[C@H]1CCN(Cc2ccc(Cl)cc2)C[C@@H]1O [compound 283] | > 100 nM
12 | CC[C@H]1CN(c2ncc(C(N)=O)nc2Cl)CCN1C1CCN(Cc2ccc(Cl)cc2F)CC1 [compound 284] | < 25 nM
13 | CC[C@H]1CN(c2ncc(C(N)=O)nc2Cl)CCN1C1CCN(Cc2ccc(Cl)cc2[C@H](O)C(N)=O)CC1 [compound 285] | < 25 nM
14 | CC[C@H]1CN(c2ncc(C(N)=O)nc2Cl)CCN1C1CCN(Cc2ccc(Cl)cc2[C@@H](O)C(N)=O)CC1 [compound 286] | < 25 nM
15 | CNC(=O)c1cnc(N2C[C@H](C)N(C3CCN(Cc4ccc(Cl)cc4F)CC3)C[C@H]2C)cn1 [compound 287] | > 100 nM
16 | COC(=O)c1cnc(N2C[C@H](C)N(C3CCN(Cc4ccc(Cl)cc4F)CC3)C[C@H]2C)cn1 [compound 288] | > 100 nM
17 | C[C@@H]1CN(C2CCN(Cc3ccc(Cl)cc3F)CC2)[C@@H](C)CN1c1cnc(C(N)=O)cn1 [compound 289] | > 100 nM
18 | CC[C@H]1CN(c2nc(N(C)C)c(C(=O)OC)nc2Cl)CCN1C1CCN(Cc2ccc(Cl)cc2)CC1 [compound 290] | < 25 nM
19 | CC[C@H]1CN(c2nc(N)c(C(=O)O)nc2Cl)CCN1C1CCN(Cc2ccc(Cl)cc2)CC1 [compound 293] | > 100 nM
20 | COC(=O)c1nc(Cl)c(N2C[C@H](C)N(C3CCN(Cc4ccc(Cl)cc4F)CC3)C[C@H]2C)nc1N [compound 301] | > 100 nM

Row | Compound | IC50
21 | COC(=O)c1nc(Cl)c(N2CCN(C3CCN(Cc4ccc(Cl)cc4)CC3)[C@@H](C)C2)nc1N [compound 302] | > 100 nM
22 | CC[C@H]1CN(c2nc(N)c(C(=O)NCCO)nc2Cl)CCN1C1CCN(C2c3ccc(C#N)cc3CCC2O)CC1 (stereo partly drawn) [compound 304] | < 25 nM
23 | CC[C@H]1CN(c2nc(N)c(C(=O)OC)nc2Cl)CCN1C1CCN(C2c3ccc(C#N)cc3CCC2O)CC1 (stereo partly drawn) [compound 305] | > 100 nM
24 | CC[C@H]1CN(c2nc(N)c(C(=O)OC)nc2Cl)CCN1C1(C)CCN(Cc2ccc(Cl)cc2)CC1 [compound 310] | > 100 nM
25 | CC[C@H]1CN(c2cnc(C(=O)OC(C)C)c(N)n2)CCN1C1CCN(Cc2ccc(Cl)cc2)CC1 [compound 311] | > 100 nM
26 | CC[C@H]1CN(c2nc(N)c(C(=O)N3CCN(C(=O)OC(C)(C)C)CC3)nc2Cl)CCN1C1CCN(Cc2ccc(Cl)cc2)CC1 [compound 312] | > 100 nM
27 | CC[C@H]1CN(c2nc(N)c(C(=O)N3CCN(S(C)(=O)=O)CC3)nc2Cl)CCN1C1CCN(Cc2ccc(Cl)cc2)CC1 [compound 313] | > 100 nM
28 | CC[C@H]1CN(c2nc(N)c(C(=O)NC3CC3)nc2Cl)CCN1C1CCN(C(=O)c2ccc(Cl)cc2O)CC1 [compound 314] | < 25 nM
29 | CC[C@H]1CN(c2nc(N)c(C(=O)NCCO)nc2Cl)CCN1C1CCN(C(=O)c2ccc(Cl)cc2OCCNS(=O)(=O)C(F)(F)F)CC1 [compound 316] | < 25 nM
30 | CC[C@H]1CN(c2nc(N)c(C(=O)NCCO)nc2Cl)CCN1C1CCN(C(=O)c2ccc(Cl)cc2CC#N)CC1 [compound 317] | < 25 nM
31 | CC[C@H]1CN(c2nc(N)c(C(=O)NCCO)nc2Cl)CCN1C1CCN(C(=O)c2ccc(F)c(F)c2)CC1 [compound 318] | 25 to 100 nM
32 | CC[C@H]1CN(c2nc(N)c(C(=O)NC[C@H](C)O)nc2Cl)CCN1C1CCN(C(=O)c2ccc(Cl)cc2)CC1 [compound 319] | 25 to 100 nM
33 | CC[C@H]1CN(c2nc(N)c(C(=O)NC(CO)CO)nc2Cl)CCN1C1CCN(C(=O)c2ccc(Cl)cc2)CC1 [compound 320] | 25 to 100 nM
34 | CC[C@H]1CN(c2nc(N)c(C(=O)NCCO)nc2Cl)CCN1C1CCN(C(=O)c2ccc(C)cc2O)CC1 [compound 321] | 25 to 100 nM
35 | CC[C@H]1CN(c2nc(N)c(C(=O)N[C@@H](C)CO)nc2Cl)CCN1C1CCN(C(=O)c2ccc(Cl)cc2)CC1 [compound 323] | 25 to 100 nM
36 | CC[C@H]1CN(c2nc(N)c(C(N)=O)nc2Cl)CCN1C1CCN(C(=O)c2ccc(Cl)cc2CN2Cc3ccccc3C2)CC1 [compound 325] | > 100 nM
37 | CC[C@H]1CN(c2nc(N)c(C(=O)NCCOCCO)nc2Cl)CCN1C1CCN(C(=O)c2ccc(Cl)cc2)CC1 [compound 327] | > 100 nM
38 | CC[C@H]1CN(c2nc(N)c(C(=O)N[C@@H](CO)C(C)O)nc2Cl)CCN1C1CCN(C(=O)c2ccc(Cl)cc2)CC1 (stereo partly drawn) [compound 328] | > 100 nM
39 | CC[C@H]1CN(c2nc(N)c(C(=O)N[C@H](CO)C(C)C)nc2Cl)CCN1C1CCN(C(=O)c2ccc(Cl)cc2)CC1 [compound 329] | > 100 nM
40 | CC[C@H]1CN(c2nc(N)c(C(=O)NC)nc2Cl)CCN1C1CCN(C(=O)c2ccc(Cl)cc2N)CC1 [compound 330] | < 25 nM

Now from value to molecule:

Row | IC50 | Compound
41 | < 25 nM | CC[C@H]1CN(c2nc(N)c(C(=O)NCCNS(N)(=O)=O)nc2Cl)CCN1C1CCN(Cc2ccc(Cl)cc2C#N)CC1 [compound 267]
42 | < 25 nM | CC[C@H]1CN(c2nc(N)c(C(=O)NCCOC)nc2Cl)CCN1C1CCN(Cc2ccc(Cl)cc2)CC1 [compound 268]
43 | > 100 nM | CC[C@H]1CN(c2nc(N)c(C(=O)N=C(N)N)nc2Cl)CCN1C1CCN(Cc2ccc(Cl)cc2F)CC1 [compound 269]
44 | < 25 nM | CC[C@H]1CN(c2nc(N)c(C(=O)NN)nc2Cl)CCN1C1CCN(Cc2ccc(Cl)cc2)CC1 [compound 271]
45 | 25 to 100 nM | CC[C@H]1CN(c2nc(N)c(C(=O)NNC(C)=O)nc2Cl)CCN1C1CCN(Cc2ccc(Cl)cc2)CC1 [compound 272]
46 | 25 to 100 nM | CC[C@H]1CN(c2nc(NC(=O)N(C)C)c(C(=O)OC)nc2Cl)CCN1C1CCN(Cc2ccc(Cl)cc2)CC1 [compound 291]
47 | < 25 nM | CC[C@H]1CN(c2nc(NC(=O)C(F)(F)F)c(C(N)=O)nc2Cl)CCN1C1CCN(Cc2ccc(Cl)cc2F)CC1 [compound 292]
48 | < 25 nM | CC[C@H]1CN(c2nc(N)c(C(=O)OC)nc2Cl)CCN1C1CCN(Cc2ccc(Cl)cc2CCN)CC1 [compound 294]
49 | < 25 nM | CC[C@H]1CN(c2nc(N)c(C(=O)OC)nc2Cl)CCN1C1CCN(Cc2ccc(Cl)cc2F)CC1 [compound 295]
50 | < 25 nM | CC[C@H]1CN(c2nc(N)c(C(=O)OC)nc2Cl)CCN1C1CCN(Cc2ccc(Cl)cc2CCNC(=O)OC(C)(C)C)CC1 [compound 296]
51 | 25 to 100 nM | CC[C@H]1CN(c2nc(N)c(C(=O)OC)nc2Cl)CCN1C1CCN(Cc2ccc(Cl)cc2OCCNC(=O)NC(C)(C)C)CC1 [compound 297]
52 | 25 to 100 nM | CCNC(=O)NCCc1cc(Cl)ccc1CN1CCC(N2CCN(c3nc(N)c(C(=O)OC)nc3Cl)C[C@@H]2CC)CC1 [compound 298]
53 | 25 to 100 nM | CC[C@H]1CN(c2nc(N)c(C(=O)OC)nc2Cl)CCN1C1CCN(Cc2ccc(Cl)cc2CC#N)CC1 [compound 299]
54 | > 100 nM | CC[C@H]1CN(c2nc(N)c(C(=O)OC)nc2Cl)CCN1C1CCN(Cc2ccc(Cl)cc2C#N)CC1 [compound 300]
55 | > 100 nM | CC[C@H]1CN(c2nc(N)c(C(=O)OC)nc2Cl)CCN1C1CCN(Cc2ccc(Cl)cc2CCNS(C)(=O)=O)CC1 [compound 303]
56 | > 100 nM | CC[C@H]1CN(c2nc(N)c(C(=O)OC)nc2Cl)CCN1C1CCN(Cc2ccc(C#N)cc2O)CC1 [compound 306]
57 | > 100 nM | CC[C@H]1CN(c2nc(N)c(C(=O)OC)nc2Cl)CCN1C1CCN(Cc2ccc(C#N)cc2OCCO)CC1 [compound 307]
58 | > 100 nM | CC[C@H]1CN(c2nc(N)c(C(=O)OC)nc2Cl)CCN1C1CCN(Cc2ccc(C#N)cc2OCCOC)CC1 [compound 308]
59 | > 100 nM | CC[C@H]1CN(c2nc(N)c(C(=O)OC)nc2Cl)CCN1C1CCN(Cc2ccc(Cl)cc2CCNC(C)=O)CC1 [compound 309]
60 | < 25 nM | CC[C@H]1CN(c2nc(N)c(C(=O)NCCO)nc2Cl)CCN1C1CCN(C(=O)c2ccc(Cl)cc2OCCNC(=O)OC(C)(C)C)CC1 [compound 315]
61 | 25 to 100 nM | CC[C@H]1CN(c2nc(N)c(C(=O)NCCO)nc2Cl)CCN1C1CCN(C(=O)c2ccc(Cl)cc2O)CC1 [compound 322]
62 | > 100 nM | CCOC(=O)COc1cc(Cl)ccc1C(=O)N1CCC(N2CCN(c3nc(N)c(C(=O)NCCO)nc3Cl)C[C@@H]2CC)CC1 [compound 324]
63 | > 100 nM | CC[C@H]1CN(c2nc(N)c(C(=O)NCCO)nc2Cl)CCN1C1CCN(C(=O)c2ccc(Cl)cc2OCCN)CC1 [compound 326]
